Results taken from ChEMBL document CHEMBL1130776, “Synthesis and biological activity of 3-substituted 3-desoxynaltrindole derivatives” (Bioorg Med Chem Lett, 1998).

Legend:
[1] = biological target: Delta-type opioid receptor (Rattus norvegicus, UniProt P33533); test: Compound was tested for its ability to displace [3H]DADLE from delta receptor in rat brain.; assay type: tissue-based
Mu-type opioid receptor = Mu-type opioid receptor (Rattus norvegicus, UniProt P33535); test: Compound was tested for its ability to displace [3H]DAMGO from mu receptor in rat brain.; assay type: tissue-based
[2] = biological target: Kappa-type opioid receptor (Cavia porcellus, UniProt P41144); test: Compound was tested for its ability to displace [3H]U-69593 from kappa receptor in guinea pig brain.
Sequence of Kappa-type opioid receptor (P41144 whole entry): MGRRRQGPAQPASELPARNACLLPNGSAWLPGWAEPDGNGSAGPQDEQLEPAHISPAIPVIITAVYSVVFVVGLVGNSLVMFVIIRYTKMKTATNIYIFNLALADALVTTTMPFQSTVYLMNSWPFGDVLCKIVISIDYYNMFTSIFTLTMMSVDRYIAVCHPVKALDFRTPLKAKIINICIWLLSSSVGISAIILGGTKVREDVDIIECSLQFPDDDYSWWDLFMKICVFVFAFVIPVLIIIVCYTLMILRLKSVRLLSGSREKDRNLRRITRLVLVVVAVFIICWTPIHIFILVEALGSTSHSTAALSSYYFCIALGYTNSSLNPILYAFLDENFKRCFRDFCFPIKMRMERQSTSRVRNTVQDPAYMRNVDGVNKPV

Sequence of Delta-type opioid receptor (P33533 whole entry): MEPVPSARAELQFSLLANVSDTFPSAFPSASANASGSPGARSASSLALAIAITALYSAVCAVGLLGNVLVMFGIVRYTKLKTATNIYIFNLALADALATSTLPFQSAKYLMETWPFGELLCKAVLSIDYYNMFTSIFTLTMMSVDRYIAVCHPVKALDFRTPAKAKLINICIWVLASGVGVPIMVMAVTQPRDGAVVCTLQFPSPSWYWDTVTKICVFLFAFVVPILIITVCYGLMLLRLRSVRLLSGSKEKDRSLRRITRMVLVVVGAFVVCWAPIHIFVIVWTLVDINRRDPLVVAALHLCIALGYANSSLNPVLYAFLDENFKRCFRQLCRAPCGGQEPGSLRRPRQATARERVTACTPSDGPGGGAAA
Sequence of Mu-type opioid receptor (P33535 whole entry): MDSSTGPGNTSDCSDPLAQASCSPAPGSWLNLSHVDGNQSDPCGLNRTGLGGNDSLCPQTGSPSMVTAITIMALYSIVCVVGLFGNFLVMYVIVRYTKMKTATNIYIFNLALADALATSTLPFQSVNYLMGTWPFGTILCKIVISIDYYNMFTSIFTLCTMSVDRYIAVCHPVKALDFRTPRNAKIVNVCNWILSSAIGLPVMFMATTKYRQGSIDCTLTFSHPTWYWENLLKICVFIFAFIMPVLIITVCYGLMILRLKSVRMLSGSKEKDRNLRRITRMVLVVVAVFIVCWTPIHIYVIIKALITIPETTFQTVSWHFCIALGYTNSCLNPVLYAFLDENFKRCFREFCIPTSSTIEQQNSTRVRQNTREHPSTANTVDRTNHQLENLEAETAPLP

Structure (SMILES)	Ki [1]	Ki (Mu-type opioid receptor)	Ki [2]
O[C@@]12Cc3c([nH]c4ccccc34)[C@@H]3Oc4c(-c5ccco5)ccc5c4[C@@]31CCN(CC1CC1)[C@@H]2C5	0.959 µM	> 5.68 µM	> 6.8 µM
Oc1cccc(-c2ccc3c4c2O[C@H]2c5[nH]c6ccccc6c5C[C@@]5(O)[C@@H](C3)N(CC3CC3)CC[C@]425)c1	1.61 µM	> 5.68 µM	> 6.8 µM
Cc1ccc2c3c1O[C@H]1c4[nH]c5ccccc5c4C[C@@]4(O)[C@@H](C2)N(CC2CC2)CC[C@]314	0.071 µM	> 5.68 µM	> 6.8 µM
O[C@@]12Cc3c([nH]c4ccccc34)[C@@H]3Oc4c(-c5ccccc5)ccc5c4[C@@]31CCN(CC1CC1)[C@@H]2C5	10.6 µM	> 5.68 µM	> 6.8 µM
COc1cccc(-c2ccc3c4c2O[C@H]2c5[nH]c6ccccc6c5C[C@@]5(O)[C@@H](C3)N(CC3CC3)CC[C@]425)c1	> 6.67 µM	> 5.68 µM	> 6.8 µM
C=Cc1ccc2c3c1O[C@H]1c4[nH]c5ccccc5c4C[C@@]4(O)[C@@H](C2)N(CC2CC2)CC[C@]314	0.061 µM	> 5.68 µM	17.6 µM
O[C@@]12Cc3c([nH]c4ccccc34)[C@H]3Oc4cccc5c4[C@@]31CCN(CC1CC1)[C@@H]2C5	0.035 µM	> 5.68 µM	10.9 µM
Oc1ccc2c3c1O[C@H]1c4[nH]c5ccccc5c4C[C@@]4(O)[C@@H](C2)N(CC2CC2)CC[C@]314 [NALTRINDOLE]	0.000217 µM		0.0304 µM
